Reference: publication PMC6373163, “Potential in vitro anti-allergic, anti-inflammatory and cytotoxic activities of ethanolic extract of Baliospermum montanum root, its major components and a validated HPLC method” (BMC Complementary and Alternative Medicine, 2019)
Values after ≈ are worked out from the molar mass of the structure shown.

Key:
[1] = system: NO production of LPS-induced RAW 264.7 cells; test: Inhibition of NO production in LPS-induced RAW 264.7 cells (Griess reagent); type: cell-based, murine; settings: Mus musculus; for inhibition at 0.1 µg/mL: RAW264.7, 0.1 μg/mL; for inhibition at 0.1 µg/mL / inhibition at 1 µg/mL / inhibition at 10 µg/mL / inhibition at 50 µg/mL: mean ± SD, read-out: %Inhibition of LPS-induced nitric oxide release; for inhibition at 1 µg/mL: RAW264.7, 1 μg/mL; for inhibition at 10 µg/mL: RAW264.7, 10 μg/mL; for inhibition at 50 µg/mL: RAW264.7, 50 μg/mL; for IC50: RAW264.7, mean ± SD, triplicate, read-out: IC50, LPS-induced nitric oxide release
Method: The inhibitory activity of crude extracts and isolated compounds on NO production of LPS-induced RAW 264.7 cells was investigated according to a previously reported method. RAW 264.7 cells were cultured in RPMI medium supplemented with 10% FBS, penicillin/streptomycin (each 100 units/mL) and incubated at 37 °C in 5% CO2 with 95% humidity. The cells were seeded into 96-well plate (1 × 10^5 cells per well) and incubated for 24 h. Subsequently, the cells were induced by LPS at the final concentration of 2 ng/mL and the serially diluted samples (0.1 μg/mL, 1 μg/mL, 10 μg/mL and 50 μg/mL) were added. The plate was incubated for 24 h before being tested for NO accumulation and cell viability. Prednisolone was used as positive control. The accumulated NO released from the LPS-induced RAW 264.7 cells was determined by using Griess’s reagent (1% sulfanilamide and 0.1% N-(1- naphthyl) ethylenediamine dihydrochloride in 2.5% phosphoric acid). The supernatant in each well (100 μL) was transferred to another 96-well plate and 100 μL of Griess’s reagent was added. The optical density of reaction was measured at 570 nm. The inhibitory activity (%) of NO production was calculated by the following equation and the IC50 values were calculated. Inhibition%=ODcontrol‐ODsample/ODcontrol×100

[2] = system: β-hexosaminidase released from RBL-2H3 cells; test: Inhibition of β-hexosaminidase release from IgE-sensitized, DNP-BSA-stimulated RBL-2H3 cells (anti-allergic activity); type: cell-based, rat; settings: for inhibition at 0.1 µg/mL / inhibition at 1 µg/mL / inhibition at 10 µg/mL / inhibition at 50 µg/mL / IC50: Rattus norvegicus, mean ± SD, triplicate; for inhibition at 0.1 µg/mL: 0.1 μg/ml; for inhibition at 1 µg/mL: 1 μg/ml; for inhibition at 10 µg/mL: 10 μg/ml; for inhibition at 50 µg/mL: 50 μg/ml
Method: Inhibitory activity on β-hexosaminidase released from rat basophilic leukemia cells (RBL-2H3) was evaluated following the report of Juckmetha and co-workers. RBL-2H3 cells were cultured in MEM supplemented with 15% FBS, penicillin/streptomycin (each 100 μg/mL). Cells were seeded in 24-well plate with the concentration of 5 × 10^5 cells/well and incubated in 5% CO2 at 37 °C for 1.5 h. RBL-2H3 were sensitized with 0.45 μg/mL of Anti-DNP IgE and incubated at 37 °C in 5% CO2 for 24 h. Cells were then washed with 400 μL of Siraganian buffer (Buffer A) [119 mM NaCl, 5 mM KCl, 5.6 mM glucose, 0.4 mM MgCl2, 1 mM CaCl2, 25 mM piperazine-N,N′-bis (2-ethanesulfonic acid) (PIPES), 0.1% BSA, and 40 mM NaOH, pH 7.2]. Subsequently, 160 μL of buffer A was added into the wells and incubated at 37 °C for 10 min. The stock solution of the sample was diluted in DMSO and the working samples were diluted with buffer A. The concentrations of the working samples were 0.1 μg/mL, 1 μg/mL, 10 μg/mL and 50 μg/mL. The serially diluted samples (20 μL) were added to each well and incubated for 10 min. The reaction of antigen-antibody was obtained by adding 20 μL of antigen (DNP-BSA) to produce a final concentration of 10 μg/mL and incubated at 37 °C for 20 min. The amount of β-hexosaminidase released from the degranulation was determined by adding 50 μL of the substrate, PNAG (1 mM in 0.1 M citrate buffer, pH 4.5). The enzyme reaction was stopped by adding 200 μL of 0.1 M carbonate buffer pH 10.0. The product of enzyme reaction, p-nitrophenol, was analyzed by measuring absorbance at wavelength 405 nm. Chlorpheniramine was used as positive control. The percentage of inhibition was calculated by the following equation. Inhibition%=1−T−B−N/C−B−N×100
Where • C = Optical density of control: [+] DNP-BSA, [−] Test sample; • T = Optical density of test sample: [+] DNP-BSA, [+] Test sample; • B = Optical density of blank: […], [+] Test sample; • N = Optical density of normal: [−] DNP-BSA, [−] Test sample.

HepG2 = test: Cytotoxic activity by sulforhodamine B (SRB) assay, HepG2; type: cell-based; settings: for Selective index: HaCaT versus HepG2; for IC50: Homo sapiens, HepG2, SRB, 72 h exposure, 72 h recovery
Method: (§1) The crude extracts and isolated compounds were evaluated for cytotoxic activity by using sulforhodamine B (SRB) assay against two cancerous liver cells (HepG2 and KKU-M156) and a normal cells (HaCaT). The SRB protocol has been described previously. HepG2 was cultured in MEM; KKU-M156 was cultured in HAM F-12 media and HaCaT was cultured in DMEM. All cultured media were supplemented with 10% FBS, penicillin/streptomycin (each 100 units/mL). All cells were incubated in 5% CO2 at 37 °C with 95% humidity. Based on the growth curve, each cell was seeded into 96-well plate (100 μL per well) with optimal density (HepG2: 3 × 10^3 cells per well, KKU-M156: 2 × 10^3 cells per well and HaCaT: 8 × 10^3 cells per well). Seeded cells were incubated at 37 °C in a 5% CO2 with 95% humidity for 24 h. Cells were then treated with 100 μL of different concentrations of sample solution (0.1 μg/mL, 1 μg/mL, 10 μg/mL and 50 μg/mL). DMSO at the same concentration as the sample (2% v/v) was used as the control solvent. Cell cultures were incubated for the exposure time of 72 h. After the exposure time, the medium was removed and the plate was washed with 200 μL phosphate buffer saline (PBS) and 200 μL fresh medium was added into each well. The plates were then incubated for 72 h for the recovery period. The cells were then fixed by adding 100 μL of 40% trichloroacetic acid and the plates left at 4 °C for 45 min. After the plates were washed, 50 μL of SRB solution (0.4% w/v in acetic acid) was added into each well and the cells were allowed to be strained for 30 min. The stained cells were dissolved by using 100 μL of 10 mM Tris base pH 10.5. The %inhibition was calculated using the following equation. Inhibition%=ODcontrol‐ODsample/ODcontrol×100

KKU-M156 = test: Cytotoxic activity by sulforhodamine B (SRB) assay, KKU-M156; type: cell-based; settings: for Selective index: HaCaT versus KKU-M156; for IC50: KKU-M156, SRB, 72 h exposure, 72 h recovery
Method: as §1

[3] = Viability of LPS-treated RAW 264.7 cells (MTT); type: cell-based, murine; settings: mouse
Method: The viability of the LPS treated RAW 264.7 cells were colorimetrically determined by using 3-(4, 5-dimethyl-2-thiazolyl)-2, 5-diphenyl-2H-tetrazolium bromide (MTT) method. MTT solution (10 μL) was added into each well and the plate was incubated for 2 h. The remained formazan crystal in each well, after removing the medium, was dissolved by 0.04 M HCl in isopropanol (100 μL). The optical density was measured by using microplate reader at wavelength 570 nm.

[4] = Cytotoxic activity by sulforhodamine B (SRB) assay, normal cells HaCaT; type: cell-based; settings: human, 72 h exposure, 72 h recovery
Method: as §1

[5] = system: NO production of LPS-induced RAW 264.7 cells; test: Inhibition of NO production in LPS-induced RAW 264.7 cells (Griess reagent); type: cell-based, murine; settings: Mus musculus, RAW264.7, 0.01 μg/mL, mean ± SD, read-out: %Inhibition of LPS-induced nitric oxide release
[6] = system: β-hexosaminidase released from RBL-2H3 cells; test: Inhibition of β-hexosaminidase release from IgE-sensitized, DNP-BSA-stimulated RBL-2H3 cells (anti-allergic activity); type: cell-based; settings: Rattus norvegicus, 100 μg/ml, mean ± SD, triplicate

CCC(=O)c1cc(OC)c(OC)c(OC)c1 [Compound 2, 1-(3′,4′,5′-trimethoxyphenyl) propan-1-one]
inhibition at 0.1 µg/mL [1]: 7.09 ± 6.86%
inhibition at 1 µg/mL [1]: 11.1 ± 9.89%
inhibition at 10 µg/mL [1]: 8.69 ± 6.93%
inhibition at 50 µg/mL [1]: 58.8 ± 3.59%
IC50 [1]: 33.6 ± 5.25 µg/mL (≈ 150 µM)
inhibition at 0.1 µg/mL [2]: -5.37 ± 2.3%
inhibition at 1 µg/mL [2]: 15.1 ± 1.71%
inhibition at 10 µg/mL [2]: 30.4 ± 6.7%
inhibition at 50 µg/mL [2]: 75.2 ± 6.47%
IC50 [2]: 26.2 ± 6.06 µg/mL
Selective index (HepG2): > 2.10
IC50 (HepG2): 47.6 ± 1.2 µg/mL (≈ 212 µM)
Selective index (KKU-M156): > 1.04
IC50 (KKU-M156): 95.65 ± 0.48 µg/mL (≈ 427 µM)
viability at 0.1 μg/mL [3]: 94.5%
viability at 1 μg/mL [3]: 88.8%
viability at 10 μg/mL [3]: 80.8%
viability at 50 μg/mL [3]: 90.4%
IC50 at 72 h [4]: > 100 µg/mL

CC[C@]1(O)C[C@H]2CN(CCc3c([nH]c4ccccc34)[C@@](C(=O)OC)(c3cc4c(cc3OC)N(C=O)[C@H]3[C@@](O)(C(=O)OC)[C@H](OC(C)=O)[C@]5(CC)C=CCN6CC[C@]43[C@@H]65)C2)C1 [Vincristine, reference compound]
Selective index (HepG2): < 0.008
IC50 (HepG2): 0.013 ± 0.0006 µg/mL (≈ 0.0158 µM)
Selective index (KKU-M156): < 0.033
IC50 (KKU-M156): 0.003 ± 0.0015 µg/mL (≈ 0.00364 µM)
IC50 at 72 h [4]: < 0.0001 µg/mL

CCC(=O)c1cc(OC)c(OC)cc1O [Compound 3, 1-(2′-hydroxy-4′, 5′-dimethoxyphenyl) propan-1-one]
inhibition at 0.1 µg/mL [1]: -0.82 ± 3.26%
inhibition at 1 µg/mL [1]: 2.64 ± 0.31%
inhibition at 10 µg/mL [1]: 14.6 ± 3.43%
inhibition at 50 µg/mL [1]: 34.4 ± 3.07%
IC50 [1]: > 50 µg/mL
inhibition at 0.1 µg/mL [2]: -14.2 ± 5.67%
inhibition at 1 µg/mL [2]: 8.52 ± 2.93%
inhibition at 10 µg/mL [2]: 17.4 ± 5.72%
inhibition at 50 µg/mL [2]: 60.8 ± 8.98%
IC50 [2]: 44.4 ± 7.33 µg/mL
anti-allergic activity (in words) ([2]; judged from IC50): moderate activity
Selective index (HepG2): > 1.11
IC50 (HepG2): 90.3 ± 5.65 µg/mL (≈ 430 µM)
Selective index (KKU-M156): > 1.20
IC50 (KKU-M156): 83.4 ± 5.2 µg/mL (≈ 397 µM)
viability at 0.1 μg/mL [3]: 102%
viability at 1 μg/mL [3]: 97%
viability at 10 μg/mL [3]: 97.3%
viability at 50 μg/mL [3]: 91.6%
IC50 at 72 h [4]: > 100 µg/mL

C[C@]12C=CC(=O)C=C1CC[C@@H]1[C@@H]2[C@@H](O)C[C@@]2(C)[C@H]1CC[C@]2(O)C(=O)CO [Prednisolone, reference compound]
inhibition at 0.1 µg/mL [1]: 47.7 ± 6.24%
inhibition at 1 µg/mL [1]: 69.9 ± 3.76%
inhibition at 10 µg/mL [1]: 77.9 ± 8.12%
IC50 [1]: 0.11 ± 0.02 µg/mL (≈ 0.305 µM)
inhibition at 0.01 µg/mL [5]: 19.8 ± 3.43%
viability at 0.01 μg/mL ([3]; 0.01 μg/mL): 100%
viability at 0.1 μg/mL [3]: 84.3%
viability at 1 μg/mL [3]: 89.5%
viability at 10 μg/mL [3]: 80.8%

CN(C)CCC(c1ccc(Cl)cc1)c1ccccn1 (centres unmarked) [Chlorpheniramine, reference compound]
inhibition at 1 µg/mL [2]: 14.9 ± 1.57%
inhibition at 10 µg/mL [2]: 36.2 ± 2.84%
inhibition at 50 µg/mL [2]: 71.4 ± 11%
IC50 [2]: 17.7 ± 1.61 µg/mL
inhibition at 100 µg/mL [6]: 81.3 ± 9.51%

CCC(=O)c1ccc(OC)c(OC)c1 [Compound 1, 1-(3′,4′-dimethoxyphenyl) propan-1-one]
inhibition at 0.1 µg/mL [1]: 2.66 ± 0.23%
inhibition at 1 µg/mL [1]: 3.91 ± 3.03%
inhibition at 10 µg/mL [1]: 14.4 ± 1.71%
inhibition at 50 µg/mL [1]: 69.2 ± 2.49%
IC50 [1]: 40.4 ± 1.32 µg/mL (≈ 208 µM)
inhibition at 0.1 µg/mL [2]: -7.88 ± 3.01%
inhibition at 1 µg/mL [2]: 4.84 ± 3.46%
inhibition at 10 µg/mL [2]: 29.4 ± 2.01%
inhibition at 50 µg/mL [2]: 77.7 ± 3.6%
IC50 [2]: 21.2 ± 2.01 µg/mL
Selective index (HepG2): > 1.15
IC50 (HepG2): 87.1 ± 1.36 µg/mL (≈ 448 µM)
Selective index (KKU-M156): > 1.71
IC50 (KKU-M156): 58.3 ± 5.95 µg/mL (≈ 300 µM)
viability at 0.1 μg/mL [3]: 84.7%
viability at 1 μg/mL [3]: 89.7%
viability at 10 μg/mL [3]: 84.7%
viability at 50 μg/mL [3]: 80.5%
IC50 at 72 h [4]: > 100 µg/mL
